≈ marks a conversion by molar mass, not a printed value. Like-named read-outs stand apart in the source and are kept apart here.
Tests used:
in vitro [1] = conditions: African green monkey
in vitro [2] = conditions: dog
in vitro [3] = conditions: African green monkey; remark: listed apart in the source
adenovirus-5 (Ad5) [4] = experiment: organism not typed; conditions: A549
[5] = test system: Venezuelan equine encephalitis virus (VEEV); conditions: VEEV; SI = CC50/EC50
poliovirus-1 (POV-1) [6] = conditions: for SI: POV-1, SI = CC50/EC50
[7] = test system: Rift Valley fever virus (RVFV); conditions: RVFV; SI = CC50/EC50
in vitro [8] = conditions: Syrian hamster
dengue virus-2 (DV-2) [9] = conditions: DV-2; SI = CC50/EC50
[10] = MRC-5 cytotoxicity assay (MTS) and visual cytotoxicity; conditions: human
SARS-CoV [11] = experiment: microbe, parasite or virus in culture; conditions: Severe acute respiratory syndrome coronavirus, Vero 76
in vitro [12] = conditions: dog; remark: listed apart in the source
poliovirus-1 (POV-1) [13] = experiment: organism not typed
in vitro [14] = conditions: African green monkey; remark: listed apart in the source
West Nile virus (WNV) [15] = experiment: microbe, parasite or virus in culture; conditions: Vero 76
Powassan virus (POWV) [16] = experiment: microbe, parasite or virus in culture; conditions: BHK-21
in vitro [17] = conditions: African green monkey; remark: listed apart in the source
in vitro [18] = conditions: African green monkey; remark: listed apart in the source
SARS-CoV-2 [19] = conditions: SARS-CoV-2; SI = CC50/EC50
Yellow fever virus (YFV) [20] = experiment: microbe, parasite or virus in culture; conditions: Huh-7
Powassan virus (POWV) [21] = conditions: POWV; SI = CC50/EC50
[22] = test system: Japanese encephalitis virus (JEV); conditions: JEV; SI = CC50/EC50
enterovirus-68 (EV-68) [23] = conditions: EV-68; SI = CC50/EC50
in vitro [24] = conditions: African green monkey; remark: listed apart in the source
in vitro [25] = conditions: African green monkey; remark: listed apart in the source
RSV [26] = conditions: RSV; SI = CC50/EC50
influenza A(H1N1) [27] = experiment: microbe, parasite or virus in culture; conditions: H1N1, MDCK
[28] = test system: Venezuelan equine encephalitis virus (VEEV); experiment: microbe, parasite or virus in culture; conditions: Vero 76
Influenza B [29] = test system: Influenza B
TCRV [30] = conditions: TCRV; SI = CC50/EC50
dengue virus-2 (DV-2) [31] = experiment: microbe, parasite or virus in culture; conditions: Huh-7
enterovirus-68 (EV-68) [32] = experiment: organism not typed; conditions: RD
Influenza B [33] = experiment: microbe, parasite or virus in culture; conditions: MDCK
Yellow fever virus (YFV) [34] = conditions: YFV; SI = CC50/EC50
[35] = human
Zika virus [36] = conditions: Zika; SI = CC50/EC50
adenovirus-5 (Ad5) [37] = conditions: Ad5; SI = CC50/EC50
HCMV AD169 = experiment: HCMV plaque reduction assay, MRC-5 cells, strain AD169; assay type: cell-based, Human cytomegalovirus; conditions: Human betaherpesvirus 5, 144 h; hCMV AD169, MRC5 cells, plaque assay, 6-days duration
West Nile virus (WNV) [38] = conditions: WNV; SI = CC50/EC50
[39] = test system: Rift Valley fever virus (RVFV); experiment: microbe, parasite or virus in culture; conditions: Vero 76
SARS-CoV [40] = conditions: SARS-CoV; SI = CC50/EC50
in vitro [41] = conditions: African green monkey; remark: listed apart in the source
[42] = test system: Japanese encephalitis virus (JEV); experiment: microbe, parasite or virus in culture; conditions: Vero 76
in vitro [43] = conditions: dog; remark: listed apart in the source
Zika virus [44] = experiment: microbe, parasite or virus in culture; conditions: Vero 76
RSV [45] = experiment: microbe, parasite or virus in culture; conditions: human respiratory syncytial virus, MA104
in vitro [46] = conditions: African green monkey; remark: listed apart in the source
[47] = rat, 1 µM
TCRV [48] = experiment: microbe, parasite or virus in culture; conditions: Mammarenavirus tacaribeense, Vero C1008
SARS-CoV-2 [49] = experiment: microbe, parasite or virus in culture; conditions: Severe acute respiratory syndrome coronavirus 2, Vero 76
influenza A(H5N1) [50] = experiment: microbe, parasite or virus in culture; conditions: H5N1, MDCK
influenza A(H1N1) [51] = test system: influenza A(H1N1)
influenza A(H5N1) [52] = test system: influenza A(H5N1)
in vitro [53] = conditions: human
[54] = test system: enterovirus-68 (EV-68, US/DY/14-18953); conditions: EV-68; SI = CC50/EC50
[55] = test system: enterovirus-68 (EV-68, US/DY/14-18953); experiment: organism not typed; conditions: RD

Nc1nc2c(ncn2[C@@H]2OC(CO)=CC2O)c(=O)[nH]1 (some centres unmarked) [AB21651]
CC50 (in vitro [1]): > 2000 µM | CC50 (in vitro [2]): > 2000 µM | CC50 (in vitro [3]): > 2000 µM | EC50 (adenovirus-5 (Ad5) [4]): > 2000 µM | SI [5]: 0 | SI (poliovirus-1 (POV-1) [6]): 0 | SI [7]: 0 | CC50 (in vitro [8]): > 2000 µM | SI (dengue virus-2 (DV-2) [9]): 0 | CC50 at 6 days [10]: > 100 µM | EC50 (SARS-CoV [11]): > 2000 µM | CC50 (in vitro [12]): > 2000 µM | EC50 (poliovirus-1 (POV-1) [13]; Vero 76): > 2000 µM | CC50 (in vitro [14]): > 2000 µM | EC50 (West Nile virus (WNV) [15]): > 2000 µM | EC50 (Powassan virus (POWV) [16]): > 2000 µM | CC50 (in vitro [17]): > 2000 µM | CC50 (in vitro [18]): > 2000 µM | SI (SARS-CoV-2 [19]): 0 | EC50 (Yellow fever virus (YFV) [20]): > 2000 µM | SI (Powassan virus (POWV) [21]): 0 | SI [22]: 0 | SI (enterovirus-68 (EV-68) [23]): 0 | CC50 (in vitro [24]): > 2000 µM | CC50 (in vitro [25]): > 2000 µM | SI (RSV [26]): 0 | EC50 (influenza A(H1N1) [27]): 440 µM | EC50 [28]: > 2000 µM | SI (Influenza B [29]): 0 | SI (TCRV [30]): 0 | EC50 (dengue virus-2 (DV-2) [31]): > 2000 µM | EC50 (enterovirus-68 (EV-68) [32]): > 1100 µM | EC50 (Influenza B [33]): > 2000 µM | SI (Yellow fever virus (YFV) [34]): 0 | Peak area ratio, metabolite formed (AB21649 from AB23039, AB21651 from AB23040) ([35]; 0 min, 1 µM): 6.17E−04 | Peak area ratio, metabolite formed (AB21649 from AB23039, AB21651 from AB23040) ([35]; 0 min, 1 μM): 7.04E−04 | Peak area ratio, metabolite formed (AB21649 from AB23039, AB21651 from AB23040) ([35]; 15 min, 1 μM): 1.03E−03 | Peak area ratio, metabolite formed (AB21649 from AB23039, AB21651 from AB23040) ([35]; 60 min, 1 μM): 1.50E−03 | SI (Zika virus [36]): 0 | SI (adenovirus-5 (Ad5) [37]): 0 | EC50 (HCMV AD169): > 100 µM | SI (West Nile virus (WNV) [38]): 0 | EC50 [39]: > 2000 µM | SI (SARS-CoV [40]): 0 | CC50 (in vitro [41]): > 2000 µM | EC50 [42]: > 2000 µM | CC50 (in vitro [43]): > 2000 µM | EC50 (Zika virus [44]): > 2000 µM | EC50 (RSV [45]): > 2000 µM | CC50 (in vitro [46]): > 2000 µM | Peak area ratio, metabolite formed (AB21649 from AB23039, AB21651 from AB23040) ([47]; 15 min): 6.93E−04 | Peak area ratio, metabolite formed (AB21649 from AB23039, AB21651 from AB23040) ([47]; 60 min): 7.68E−04 | EC50 (TCRV [48]): > 2000 µM | EC50 (SARS-CoV-2 [49]): > 2000 µM | EC50 (influenza A(H5N1) [50]): 1300 µM | antiviral activity against Influenza (H1N1) (in words) (influenza A(H1N1) [51]): exhibits antiviral activity | SI (influenza A(H1N1) [51]; H1N1): >4.5 | antiviral activity against Influenza (H5N1) (in words) (influenza A(H5N1) [52]; Table 11): exhibits antiviral activity | SI (influenza A(H5N1) [52]; influenza A(H5N1), SI = CC50/EC50): >1.5

CC(C)S(=O)(=O)n1c(N)nc2ccc(/C(=N/O)c3ccccc3)cc21 [Enviroxime]
CC50 (in vitro [53]): 5.5 µg/mL (≈ 15.3 µM) | SI (poliovirus-1 (POV-1) [6]): 350 | CC50 (poliovirus-1 (POV-1) [6]; Vero 76 cells without virus, positive control): 3.3 µg/mL (≈ 9.21 µM) | EC50 (poliovirus-1 (POV-1) [13]; Vero 76, read-out: EQ50): 0.0095 µg/mL | SI50 (SI) [54]: 46 | EC50 [55]: 0.12 µg/mL (≈ 0.335 µM)
